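Test compounds were applied to cells in 96-well plates for 48 hours at 5 doses. GI50 marks 50% less growth. TGI denotes the concentration required for complete inhibition of growth.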
Key:
Experiment in all cases: NCI anticancer screen, dose series, 48 h
M14 melanoma = system: M14 melanoma
OVCAR-5 ovarian = system: OVCAR-5 ovarian
HCC-2998 colon = system: HCC-2998 colon
A549 NSCLC = system: A549 NSCLC
DMS 273 small cell lung = system: DMS 273 small cell lung
UACC-62 melanoma = system: UACC-62 melanoma
M19-MEL melanoma = system: M19-MEL melanoma
DLD-1 colon = system: DLD-1 colon
SR leukemia = system: SR leukemia
SN12C renal = system: SN12C renal
SK-MEL-5 melanoma = system: SK-MEL-5 melanoma
COLO 205 colon = system: COLO 205 colon
HL-60(TB) leukemia = system: HL-60(TB) leukemia
IGROV1 ovarian = system: IGROV1 ovarian
NCI-H460 lung = system: NCI-H460 lung
LXFL 529 NSCLC = system: LXFL 529 NSCLC
OVCAR-3 ovarian = system: OVCAR-3 ovarian
HCT-116 colon = system: HCT-116 colon
HCT-15 colon = system: HCT-15 colon
SK-MEL-28 melanoma = system: SK-MEL-28 melanoma
EKVX NSCLC = system: EKVX NSCLC
HOP-92 NSCLC = system: HOP-92 NSCLC
ACHN renal = system: ACHN renal
KM20L2 colon = system: KM20L2 colon
OVCAR-8 ovarian = system: OVCAR-8 ovarian
OVCAR-4 ovarian = system: OVCAR-4 ovarian
U251 CNS = system: U251 CNS
SF-268 CNS = system: SF-268 CNS
CAKI-1 renal = system: CAKI-1 renal
SW-620 colon = system: SW-620 colon
SNB-78 CNS = system: SNB-78 CNS
UACC-257 melanoma = system: UACC-257 melanoma
UO-31 renal = system: UO-31 renal
SK-OV-3 ovarian = system: SK-OV-3 ovarian
MOLT-4 leukemia = system: MOLT-4 leukemia
NCI-H522 lung = system: NCI-H522 lung
CCRF-CEM leukemia = system: CCRF-CEM leukemia
TK-10 renal = system: TK-10 renal
KM12 colon = system: KM12 colon
NCI-H226 lung = system: NCI-H226 lung
SF-539 CNS = system: SF-539 CNS
SNB-75 CNS = system: SNB-75 CNS
786-0 renal = system: 786-0 renal
SNB-19 CNS = system: SNB-19 CNS
HOP-62 NSCLC = system: HOP-62 NSCLC
DMS 114 small cell lung = system: DMS 114 small cell lung
NCI-H23 lung = system: NCI-H23 lung
HOP-18 NSCLC = system: HOP-18 NSCLC
SF-295 CNS = system: SF-295 CNS
HT29 colon = system: HT29 colon
K-562 leukemia = system: K-562 leukemia
A498 renal = system: A498 renal
RPMI-8226 leukemia = system: RPMI-8226 leukemia
MALME-3M melanoma = system: MALME-3M melanoma

Work on `C=C1CC(c2ccc(O)c(OC)c2)Oc2c(OC)cccc21` (stereo unspecified) yielded a TGI (M14 melanoma) of over 100 µM, a TGI (OVCAR-5 ovarian) of over 100 µM and a TGI (HCC-2998 colon) of over 100 µM. For the same compound, the TGI (A549 NSCLC) was over 100 µM, the TGI (DMS 273 small cell lung) was 55.2 µM and the TGI (UACC-62 melanoma) was over 100 µM. The TGI (M19-MEL melanoma) was over 100 µM, the TGI (DLD-1 colon) was over 100 µM and the TGI (SR leukemia) was 61.3 µM. For the same compound, the TGI (SN12C renal) was over 100 µM, the TGI (SK-MEL-5 melanoma) was over 100 µM and the TGI (COLO 205 colon) was over 100 µM. For the same compound, the TGI (HL-60(TB) leukemia) was 49.9 µM, the TGI (IGROV1 ovarian) was over 100 µM and the TGI (NCI-H460 lung) was over 100 µM. The TGI (LXFL 529 NSCLC) was over 100 µM, the TGI (OVCAR-3 ovarian) was over 100 µM and the TGI (HCT-116 colon) was over 100 µM. It also gave a TGI (HCT-15 colon) of over 100 µM, a TGI (SK-MEL-28 melanoma) of over 100 µM and a TGI (EKVX NSCLC) of over 100 µM. The TGI (HOP-92 NSCLC) was 53.1 µM, the TGI (ACHN renal) was over 100 µM and the TGI (KM20L2 colon) was over 100 µM. For the same compound, the TGI (OVCAR-8 ovarian) was over 100 µM, the TGI (OVCAR-4 ovarian) was over 100 µM and the TGI (U251 CNS) was over 100 µM. The TGI (SF-268 CNS) was over 100 µM, the TGI (CAKI-1 renal) was over 100 µM and the TGI (SW-620 colon) was over 100 µM. It also gave a TGI (SNB-78 CNS) of over 100 µM, a TGI (UACC-257 melanoma) of over 100 µM and a TGI (UO-31 renal) of over 100 µM. It also gave a TGI (SK-OV-3 ovarian) of over 100 µM, a TGI (MOLT-4 leukemia) of over 100 µM and a TGI (NCI-H522 lung) of 49.5 µM. The TGI (CCRF-CEM leukemia) was 93.7 µM, the TGI (TK-10 renal) was over 100 µM and the TGI (KM12 colon) was over 100 µM. For the same compound, the TGI (NCI-H226 lung) was over 100 µM, the TGI (SF-539 CNS) was 52.2 µM and the TGI (SNB-75 CNS) was over 100 µM. For the same compound, the TGI (786-0 renal) was over 100 µM, the TGI (SNB-19 CNS) was over 100 µM and the TGI (HOP-62 NSCLC) was over 100 µM. For the same compound, the TGI (DMS 114 small cell lung) was 56.1 µM, the TGI (NCI-H23 lung) was over 100 µM and the TGI (HOP-18 NSCLC) was over 100 µM. It also gave a TGI (SF-295 CNS) of over 100 µM, a TGI (HT29 colon) of over 100 µM and a TGI (K-562 leukemia) of 64.8 µM.
In the case of `O=C1C(C(Nc2ccccc2)c2ccccc2)=C([O-])c2ccccc21.O=C1C(C(Nc2ccccc2)c2ccccc2)=C([O-])c2ccccc21.[Co+2]` (stereo unspecified), the GI50 (M14 melanoma) is reported as 3.86 µM, the TGI (M14 melanoma) is reported as over 100 µM and the GI50 (A549 NSCLC) is reported as 4.2 µM. It also gave a TGI (A549 NSCLC) of over 100 µM, a GI50 (DMS 273 small cell lung) of 4.08 µM and a TGI (DMS 273 small cell lung) of over 100 µM. The GI50 (UACC-62 melanoma) was 5.45 µM, the TGI (UACC-62 melanoma) was over 100 µM and the GI50 (M19-MEL melanoma) was 15.2 µM. For the same compound, the TGI (M19-MEL melanoma) was over 100 µM, the GI50 (DLD-1 colon) was 4.02 µM and the TGI (DLD-1 colon) was over 100 µM. For the same compound, the GI50 (SR leukemia) was 6.07 µM, the TGI (SR leukemia) was over 100 µM and the GI50 (SK-MEL-5 melanoma) was 3.78 µM. For the same compound, the TGI (SK-MEL-5 melanoma) was over 100 µM, the GI50 (HL-60(TB) leukemia) was 3.72 µM and the TGI (HL-60(TB) leukemia) was over 100 µM. It also gave a GI50 (IGROV1 ovarian) of 5.6 µM, a TGI (IGROV1 ovarian) of over 100 µM and a GI50 (HCT-116 colon) of 3.15 µM. The TGI (HCT-116 colon) was over 100 µM, the GI50 (SK-MEL-28 melanoma) was 5.55 µM and the TGI (SK-MEL-28 melanoma) was over 100 µM. The GI50 (HOP-92 NSCLC) was 6.92 µM, the TGI (HOP-92 NSCLC) was over 100 µM and the GI50 (ACHN renal) was 6.62 µM. It also gave a TGI (ACHN renal) of over 100 µM, a GI50 (OVCAR-4 ovarian) of 3.38 µM and a TGI (OVCAR-4 ovarian) of 9.92 µM. For the same compound, the GI50 (CAKI-1 renal) was 18.7 µM, the TGI (CAKI-1 renal) was over 100 µM and the GI50 (SW-620 colon) was 4.75 µM. The TGI (SW-620 colon) was over 100 µM, the GI50 (SNB-78 CNS) was over 100 µM and the TGI (SNB-78 CNS) was over 100 µM. The GI50 (UACC-257 melanoma) was 5.04 µM, the TGI (UACC-257 melanoma) was 46.4 µM and the GI50 (UO-31 renal) was 2.69 µM. For the same compound, the TGI (UO-31 renal) was 53.8 µM, the GI50 (MOLT-4 leukemia) was 4.04 µM and the TGI (MOLT-4 leukemia) was over 100 µM. The GI50 (NCI-H522 lung) was 2.31 µM, the TGI (NCI-H522 lung) was 5.43 µM and the GI50 (A498 renal) was 5.13 µM. For the same compound, the TGI (A498 renal) was over 100 µM, the GI50 (CCRF-CEM leukemia) was 4.96 µM and the TGI (CCRF-CEM leukemia) was over 100 µM. For the same compound, the GI50 (TK-10 renal) was 5.48 µM, the TGI (TK-10 renal) was 86 µM and the GI50 (RPMI-8226 leukemia) was 2.8 µM. It also gave a TGI (RPMI-8226 leukemia) of over 100 µM, a GI50 (SF-539 CNS) of 3.3 µM and a TGI (SF-539 CNS) of over 100 µM. It also gave a GI50 (SNB-75 CNS) of 4.49 µM, a TGI (SNB-75 CNS) of 79.8 µM and a GI50 (786-0 renal) of 7.11 µM. The TGI (786-0 renal) was over 100 µM, the GI50 (SNB-19 CNS) was over 100 µM and the TGI (SNB-19 CNS) was over 100 µM. For the same compound, the GI50 (HOP-62 NSCLC) was over 100 µM, the TGI (HOP-62 NSCLC) was over 100 µM and the GI50 (NCI-H23 lung) was 4.3 µM. It also gave a TGI (NCI-H23 lung) of over 100 µM, a GI50 (HOP-18 NSCLC) of 11.5 µM and a TGI (HOP-18 NSCLC) of over 100 µM. The GI50 (K-562 leukemia) was 3.2 µM, the TGI (K-562 leukemia) was over 100 µM and the GI50 (MALME-3M melanoma) was 5.48 µM. For the same compound, the TGI (MALME-3M melanoma) was over 100 µM.

Reference: PubChem BioAssay (NCI)
